The test system of the data set is human breast cancer ZR-75-1 cell xenograft tumor. Nature of the data set: Anti-tumor effect in ER+KAT6high breast cancer cell xenograft tumor model (Test Example 6). Type of data set: in vivo, Balb/c nude mice. The settings on record: for T/C / TGI / mean tumor volume: day 34; for body weight changes compared to the PF-8144 group: all doses (0.1, 0.3 mg/kg); for efficacy compared to PF-8144: 0.1 mg/kg and 0.3 mg/kg PO QD. The method, then:
Test Example 6: Anti-Tumor Effects of Test Compounds in ER^+KAT6^high Breast Cancer Cell-Xenograft Tumor Model
Assay method: ZR-75-1 cells were subcutaneously inoculated into the right back of each mouse to evaluate the efficacy of the compounds in the subcutaneous xenograft tumor model of ZR-75-1 cells.
• 1. Cell culture: ZR-75-1 cells were cultured as a monolayer in vitro under the following culture conditions: an RPMI 1640 medium supplemented with 10% fetal bovine serum and 1% Anti-anti (Antibiotic-Antimycotic), incubated in an incubator at 37° C. with 5% CO2. The cells were digested with trypsin-EDTA twice a week for passaging as per conventional practice. When the cell saturation reached 80%-90% and the quantity met the requirement, the cells were harvested, counted, and inoculated. • 2. Animals: Balb/c nude mice, female, 6-8 weeks old, weighing 18-22 g. A total of 115 mice were required (72 mice were enrolled). They were provided by Vital River or other qualified suppliers. • 3. Tumor inoculation: Two days before tumor inoculation, 17-beta estradiol tablets (0.18 mg) were subcutaneously administered, and 10 million ZR-75-1 tumor cells+matrigel (total […]) were subcutaneously inoculated into the right back of each mouse. When the mean tumor volume reached about 131 mm^3, the mice were grouped for administration. • 4. Experimental administration: The compounds were dissolved in 5% DMSO+5% Tween 80+90% Saline or 10% DMSO+10% Solutol+80% (10% HPP-CD in saline), and administered intragastrically (PO) daily for five weeks. • 5. Experimental indicators: The experimental indicators were to investigate whether the tumor growth was inhibited or delayed or the tumor was cured. Tumor diameters were measured twice weekly using a vernier caliper. The tumor volume was calculated using the following formula: V=0.5a×b^2, where a and b represent the long diameter and short diameter of the tumor, respectively. • 6. The anti-tumor efficacy of the compounds was evaluated by TGI (%) or relative tumor proliferation rate T/C (%). TGI (%) refers to the tumor growth inhibition rate. Calculation of TGI (%):TGI (%)=[(1−(mean tumor volume at the end of administration in a treatment group—mean tumor volume at the start of administration in the treatment group))/(mean tumor volume at the end of treatment in the solvent control group—mean tumor volume at the start of treatment in the solvent control group)]×100%. The calculation formula for the relative tumor proliferation rate T/C (%) was as follows: T/C %=TRTV/CRTV×100% (TRTV:RTV of the treatment group; CRTV:RTV of the negative control group). The relative tumor volume (RTV) was calculated based on the tumor measurement results using the following formula: RTV=Vt/V0, where V0 represents the mean tumor volume measured at the time of grouping for administration (i.e., PG-DO), and Vt represents the mean tumor volume at a certain measurement. TRTV and CRTV were derived from data measured on the same day.
The mean and standard error of mean (SEM) of tumor volume at each time point for each group were included. The differences in tumor volume and tumor weight among the groups were statistically analyzed. For comparisons among three or more groups, one-way ANOVA was used for analysis. […] The analysis was performed using SPSS 17.0, and p<0.05 was considered to indicate a significant difference.
For comparisons between different doses of the same drug or different drugs at the same dose, two-way ANOVA was used for analysis, and the Bonferroni method was applied for testing. The analysis was performed using GraphPad Prism 9.0, and p<0.05 was considered to indicate a significant difference. On day 34 after the start of administration, the data between different doses of the same drug or different drugs at the same dose were analyzed using one-way ANOVA. […] The analysis was performed using SPSS 17.0, and p<0.05 was considered to indicate a significant difference.

As to `COc1ccccc1S(=O)(=O)Nc1noc2cc(Cn3cccn3)cc(OC)c12` [PF-8144, reference compound], under “0.1 mg/kg PO QD”, the T/C came to 36.2%, the TGI is 72.2% and the mean tumor volume turned out to be 407 mm^3. Besides, for the setting “0.3 mg/kg PO QD”, the T/C is given as 19.5%, the TGI is on record as 91.07% and the mean tumor volume amounted to 220 mm^3.
`COc1ccc2c(c1S(=O)(=O)Nc1noc3cc(Cn4cccn4)c(F)c(OC)c13)OCCCO2` [Compound 114, N-(6-((1H-Pyrazol-1-yl)methyl)-5-fluoro-4-methoxybenzo[d]isoxazol-3-yl)-7-methoxy-3,4-dihydro-2H-benzo[b][1,4]dioxepine-6-sulfonamide]: the “body weight changes compared to the PF-8144 group” value (shortened to “body weight changes”) is “no statistically significant difference”. Moreover, where the note is “0.1 mg/kg PO QD”, the T/C worked out at 35.8%, the TGI is 72.61% and the mean tumor volume turned out to be 403 mm^3. Besides, for the setting “0.3 mg/kg PO QD”, the T/C was 10.5%, the TGI stood at 101.21% and the mean tumor volume was 119 mm^3.
Take `COc1ccc2c(c1S(=O)(=O)Nc1noc3cc(Cn4cccn4)c(F)c(OC)c13)OCCCN2C` [Compound 115, N-(6-((1H-Pyrazol-1-yl)methyl)-5-fluoro-4-methoxybenzo[d]isoxazol-3-yl)-8-methoxy-5-methyl-2,3,4,5-tetrahydrobenzo[b][1,4]oxazepine-9-sulfonamide]: the “efficacy compared to PF-8144” value is on record as “significantly superior in efficacy to PF-8144” and the “body weight changes” value was “no statistically significant difference”. Also, under “0.1 mg/kg PO QD”, the T/C is 8.6%, the TGI turned out to be 103.38% and the mean tumor volume was determined as 97 mm^3. Besides, under “0.3 mg/kg PO QD”, the T/C is given as 2.4%, the TGI is 110.47% and the mean tumor volume was found to be 27 mm^3.
Regarding `COc1ccc2c(c1S(=O)(=O)Nc1noc3cc(Cn4cccn4)c(F)c(OC)c13)OCCC2=O` [Compound 42, N-(6-((1H-Pyrazol-1-yl)methyl)-5-fluoro-4-methoxybenzo[d]isoxazol-3-yl)-7-methoxy-4-oxochromane-8-sulfonamide], the “efficacy compared to PF-8144” value is reported as “significantly superior in efficacy to PF-8144” and the “body weight changes” value is reported as “no statistically significant difference”. Also, for the setting “0.1 mg/kg PO QD”, the T/C is recorded as 3.9%, the TGI is given as 108.67% and the mean tumor volume was 44 mm^3. Moreover, under “0.3 mg/kg PO QD”, the T/C stood at 2.2%, the TGI is on record as 110.58% and the mean tumor volume is listed as 25 mm^3.
